From patent US4966900A, “Cephalosporin β-lactam compound and medicinal composition” (priority 1986, dated 1990)
≈ marks a conversion by molar mass, not a printed value. Structures can show the parent of a compound that is named as a salt.

Assays:
in vivo = experiment: in vivo; set-up: species or system Macaco; conditions: monkey, 20 mg/kg
Procedure: Each of 20 mg/kg of the compounds obtained in Example 2, Example 25 and Example 28 was administered parenterally to Macaco and the half-time in blood was measured.
The concentrations of the compounds were measured according to HPLC method. Novapack C18 or Microbondapack C18 (trade name, produced by Waters Co.) was used as a column. Further, cefpiramide was used as a control drug.

E. cloacae 1Y247 = experiment: MIC; assay type: cell-based; conditions: Enterobacter cloacae, Table 6, read-out: MIC
Procedure: (§1) The minimum inhibition concentrations (MIC) of the compounds obtained in the respective examples described above were measured according to the standard method of Japanese Chemotherapy Association.

S. aureus IAA498 = experiment: MIC; assay type: cell-based; conditions: Staphylococcus aureus
Procedure: as §1

S. aureus Smith = experiment: MIC; conditions: Staphylococcus aureus
E. coli ML4707 = experiment: MIC; conditions: Escherichia coli, ML4707, E. coli ML4707
E. coli GN5482 = experiment: MIC; conditions: Escherichia coli, GN5482, E. coli GN5482
K. pneumoniae 4at521 = experiment: MIC; conditions: Klebsiella pneumoniae, 4AT521
E. colacae GN7471 = experiment: MIC
E. cloacae 908RN = experiment: MIC; conditions: Enterobacter cloacae
C. freundii GN7391 = experiment: MIC; conditions: Citrobacter freundii, GN7391, C. freundii GN7391
S. marcescens GN10857 = experiment: MIC; conditions: Serratia marcescens, GN10857, S. marcescens GN10857
P. vulgaris GN7919 = experiment: MIC; conditions: Proteus vulgaris, GN7919
P. aeruginosa GN10362 = experiment: MIC; conditions: Pseudomonas aeruginosa, GN10362
P. aeruginosa 4au542 = experiment: MIC; conditions: Pseudomonas aeruginosa, 4AU542, P. aeruginosa 4au542
P. aeruginosa 5D58-1 = experiment: MIC; conditions: Pseudomonas aeruginosa, 5D581, P. aeruginosa 5D58-1
P. cepacia OF189 = experiment: MIC; conditions: Burkholderia cepacia, OF189, P. cepacia OF189
P. maltophilia OF247 = experiment: MIC; conditions: Stenotrophomonas maltophilia
E. cloacae 5D52-2 = experiment: MIC; conditions: Enterobacter cloacae, 5D522
E. cloacae 5D63-2 = experiment: MIC; conditions: Enterobacter cloacae, 5D632
E. cloacae 1V25 = experiment: MIC; conditions: Enterobacter cloacae
C. freundii 5D60-1 = experiment: MIC; conditions: Citrobacter freundii, 5D601
C. freundii 1R523 = experiment: MIC; conditions: Citrobacter freundii, 1R523
C. freundii 1R524 = experiment: MIC; conditions: Citrobacter freundii, 1R524
C. freundii 1R526 = experiment: MIC; conditions: Citrobacter freundii, 1R526
C. freundii 1R527 = experiment: MIC; conditions: Citrobacter freundii, 1R527
C. freundii 1U589 = experiment: MIC; conditions: Citrobacter freundii, 1U589
C. freundii 1U692 = experiment: MIC; conditions: Citrobacter freundii, 1U692
E. cloacae 1V247 = experiment: MIC; assay type: cell-based; conditions: Enterobacter cloacae, Table 8
Procedure: as §1

| half-life (in vivo) [min] | MIC (E. cloacae 1Y247) [µg/mL] | MIC (S. aureus IAA498; Table 5) [µg/mL] | MIC (S. aureus Smith; Table 5) [µg/mL] | MIC (E. coli ML4707; Table 5) [µg/mL] | MIC (E. coli GN5482; Table 5) [µg/mL] | MIC (K. pneumoniae 4at521) [µg/mL] | MIC (E. colacae GN7471; Table 5) [µg/mL] | MIC (P. vulgaris GN7919) [µg/mL] | MIC (P. aeruginosa GN10362) [µg/mL] | MIC (E. cloacae 5D52-2) [µg/mL] | MIC (E. cloacae 5D63-2) [µg/mL] | MIC (E. cloacae 1V25) [µg/mL] | MIC (C. freundii 5D60-1) [µg/mL] | MIC (C. freundii 1R523) [µg/mL] | MIC (C. freundii 1R524) [µg/mL] | MIC (C. freundii 1R526) [µg/mL] | MIC (C. freundii 1R527) [µg/mL] | MIC (C. freundii 1U589) [µg/mL] | MIC (C. freundii 1U692) [µg/mL] | Structure (SMILES) | also measured |
| --- | --- | --- | --- | --- | --- | --- | --- | --- | --- | --- | --- | --- | --- | --- | --- | --- | --- | --- | --- | --- | --- |
| 240 | 12.5 | 12.5 | 6.25 | < 0.006 | < 0.006 | < 0.006 | 3.13 | 0.39 | 0.025 | 0.39 | 0.39 | 6.25 | 0.78 | 0.2 | 0.1 | 0.2 | 0.1 | 0.39 | 0.39 | Cc1cc(SCC2=C(C(=O)O)N3C(=O)C(NC(=O)C(=NOC(C)(C)C(=O)NNC(=O)c4ccc(O)c(O)c4)c4csc(N)n4)C3SC2)n2ncc(C(=O)O)c2n1 (stereo not shown) [Example 25, 7-{2-[2-amino-1,3-thiazol-4-yl]-2-[1-(3-(3,4-dihydroxybenzoyl)carbazoyl)-1-methylethoxyimino]acetamide}-3-[(3-carboxy-5-methylpyrazolo[1,5-a]pyrimidin-7-yl)thiomethyl]-3-cephem-4-carboxylic acid.hydrochloride] | MIC (E. cloacae 908RN; E. cloacae 908RN, Table 6): 3.13 µg/mL; MIC (E. cloacae 908RN; E. colacae 908RN, Table 5): 1.56 µg/mL; MIC (C. freundii GN7391; Table 5): 6.25 µg/mL; MIC (C. freundii GN7391; Table 6): 6.25 µg/mL; MIC (S. marcescens GN10857; Table 5): 0.1 µg/mL; MIC (P. aeruginosa 4au542; Table 5): 0.1 µg/mL; MIC (P. aeruginosa 5D58-1; Table 5): 0.05 µg/mL; MIC (P. cepacia OF189; Table 5): < 6 ng/mL; MIC (P. maltophilia OF247; Table 5): 0.1 µg/mL |
| 150 | – | – | – | – | – | – | – | – | – | – | – | – | – | – | – | – | – | – | – | Cc1cc(O)c(C(=O)N[C@@H](C(=O)N[C@@H]2C(=O)N3C(C(=O)O)=C(CSc4nnnn4C)CS[C@H]23)c2ccc(O)cc2)cn1 [Cefpiramide, cefpiramide, reference compound] | – |
| 282 | 0.78 | 25 | 12.5 | 0.012 | < 0.006 | < 0.006 | 0.78 | 0.78 | 0.05 | 0.1 | 0.2 | 0.2 | 12.5 | 0.2 | 0.1 | 0.1 | 0.1 | 0.39 | 0.39 | CC(C)(ON=C(C(=O)NC1C(=O)N2C(C(=O)O)=C(CSc3c4c(nc5c(C(=O)O)cnn35)CCC4)CSC12)c1csc(N)n1)C(=O)NNC(=O)c1ccc(O)c(O)c1 (stereo not shown) [Example 28, 7-{2-[2-Amino-1,3-thiazol-4-yl]-2-[1-(3-(3,4-dihydroxybenzoyl)carbazoyl)-1-methylethoxyimino]acetamide}-3-[(3-carboxy-6,7-dihydro-5H-cyclopenta[f]pyrazolo[1,5-a]pyrimidin-8-yl)thiomethyl]-3-cephem-4-carboxylic acid.hydrochloride] | MIC (E. cloacae 908RN; E. cloacae 908RN, Table 6): 1.56 µg/mL; MIC (E. cloacae 908RN; E. colacae 908RN, Table 5): 0.78 µg/mL; MIC (C. freundii GN7391; Table 5): 0.78 µg/mL; MIC (C. freundii GN7391; Table 6): 1.56 µg/mL; MIC (S. marcescens GN10857; Table 5): 0.2 µg/mL; MIC (P. aeruginosa 4au542; Table 5): 0.39 µg/mL; MIC (P. aeruginosa 5D58-1; Table 5): 0.1 µg/mL; MIC (P. cepacia OF189; Table 5): 12 ng/mL; MIC (P. maltophilia OF247; Table 5): 0.39 µg/mL |

| Structure (SMILES) | half-life (in vivo) [min] | MIC (E. cloacae 1Y247) [µg/mL] | MIC (S. aureus IAA498; Table 5) [µg/mL] | MIC (S. aureus Smith; Table 5) [µg/mL] | MIC (E. coli ML4707; Table 5) [µg/mL] | MIC (E. coli GN5482; Table 5) [µg/mL] | MIC (K. pneumoniae 4at521) [µg/mL] | MIC (E. colacae GN7471; Table 5) [µg/mL] | MIC (P. vulgaris GN7919) [µg/mL] | MIC (P. aeruginosa GN10362) [µg/mL] | MIC (E. cloacae 5D52-2) [µg/mL] | MIC (E. cloacae 5D63-2) [µg/mL] | MIC (E. cloacae 1V25) [µg/mL] | MIC (C. freundii 5D60-1) [µg/mL] | MIC (C. freundii 1R523) [µg/mL] | MIC (C. freundii 1R524) [µg/mL] | MIC (C. freundii 1R526) [µg/mL] | MIC (C. freundii 1R527) [µg/mL] | MIC (C. freundii 1U589) [µg/mL] | MIC (C. freundii 1U692) [µg/mL] | also measured |
| --- | --- | --- | --- | --- | --- | --- | --- | --- | --- | --- | --- | --- | --- | --- | --- | --- | --- | --- | --- | --- | --- |
| CC(=O)Oc1ccc(C(=O)NNC(=O)C(C)(C)ON=C(C(=O)NC2C(=O)N3C(C(=O)O)=C(CSc4c(C)c(C)nc5c(C(=O)O)cnn45)CS[C@H]23)c2csc(N)n2)cc1OC(C)=O (stereo partly shown) [Example 47, 7-{2-[2-Amino-1,3-thiazol-4-yl]-2-[1-(3-(3,4-diacetoxybenzoyl)carbazoyl)-1-methylethoxyimino]acetamido}-3-[(3-carboxy-5,6-dimethylpyrazolo[1,5-a]pyrimidin-7-yl)thiomethyl]-3-cephem-4-carboxylic acid] | – | – | – | – | – | – | 0.025 (≈ 0.027 µM) | – | 6.26 (≈ 6.77 µM) | 0.39 (≈ 0.422 µM) | 0.2 (≈ 0.216 µM) | 0.39 (≈ 0.422 µM) | 3.13 (≈ 3.38 µM) | 0.78 (≈ 0.843 µM) | 0.39 (≈ 0.422 µM) | 0.39 (≈ 0.422 µM) | 0.39 (≈ 0.422 µM) | 0.78 (≈ 0.843 µM) | 1.56 (≈ 1.69 µM) | 0.39 (≈ 0.422 µM) | MIC (E. cloacae 1V247): 3.13 µg/mL (≈ 3.38 µM); MIC (S. aureus IAA498; Table 7): 50 µg/mL (≈ 54.1 µM); MIC (S. aureus Smith; Table 7): 25 µg/mL (≈ 27 µM); MIC (E. coli ML4707; Table 7): 0.025 µg/mL (≈ 0.027 µM); MIC (E. coli GN5482; Table 7): 0.025 µg/mL (≈ 0.027 µM); MIC (E. colacae GN7471; Table 7): 0.39 µg/mL (≈ 0.422 µM); MIC (E. cloacae 908RN; E. colacae 908RN, Table 7): 0.78 µg/mL (≈ 0.843 µM); MIC (C. freundii GN7391; Table 7): 1.56 µg/mL (≈ 1.69 µM); MIC (S. marcescens GN10857; Table 7): 0.39 µg/mL (≈ 0.422 µM); MIC (P. aeruginosa 4au542; Table 7): 0.78 µg/mL (≈ 0.843 µM); MIC (P. aeruginosa 5D58-1; Table 7): 0.39 µg/mL (≈ 0.422 µM); MIC (P. cepacia OF189; Table 7): < 6 ng/mL; MIC (P. maltophilia OF247; Table 7): 0.78 µg/mL (≈ 0.843 µM) |
